Experimental data from patent US20120053200A1, “BACE 2 INHIBITORS” (priority 2010, published 2012).

These molecules were tested against T1, BACE2 (Rattus norvegicus, UniProt Q6IE75) (assay: Assay for BACE inhibition by measuring cellular TMEM27 cleavage (INS-TMEM27 cells, ELISA of shed TMEM27)). Conditions: inhibition of human TMEM27 cleavage by endogenous cellular BACE2 in INS1e-derived INS-TMEM27 rat cell line; ELISA of shed TMEM27 in supernatant.
T1 construct: endogenous cellular BACE2 in the Ins1e rat cell line; endogenous in cells; host or cells: INS-TMEM27 (INS1e-derived rat beta-cell line with doxycycline-inducible full-length hTMEM27)
T1 sequence (Q6IE75 63-514): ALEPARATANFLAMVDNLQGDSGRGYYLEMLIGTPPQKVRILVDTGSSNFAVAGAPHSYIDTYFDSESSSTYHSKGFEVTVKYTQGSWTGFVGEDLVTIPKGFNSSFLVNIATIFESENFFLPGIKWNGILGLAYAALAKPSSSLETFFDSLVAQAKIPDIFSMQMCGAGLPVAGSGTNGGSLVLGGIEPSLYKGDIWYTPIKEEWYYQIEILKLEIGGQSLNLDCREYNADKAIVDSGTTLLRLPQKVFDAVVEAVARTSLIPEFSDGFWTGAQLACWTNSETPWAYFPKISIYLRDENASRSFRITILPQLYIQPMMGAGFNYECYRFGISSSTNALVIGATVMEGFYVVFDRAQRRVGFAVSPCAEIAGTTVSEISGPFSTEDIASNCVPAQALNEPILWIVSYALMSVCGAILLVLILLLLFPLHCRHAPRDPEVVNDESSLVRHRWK
Format: cell-based
Source text: Assay for […] Inhibition by Measuring Cellular TMEM27 Cleavage
This assay uses the principle of inhibition of human TMEM27 cleavage by endogenous cellular BACE2 in the Ins1e rat cell line and shedding from the cell surface into the culture medium, followed by detection in an ELISA assay. Inhibition of BACE2 prevents the cleavage and shedding in a dose-dependent manner.
The stable cell line “INS-TMEM27” represents an INS1e-derived cell line with inducible expression (using the TetOn system) of full-length hTMEM27 in a doxycycline-dependent manner. The cells were cultured throughout the experiment in RPMI1640+Glutamax (Invitrogen) Penicillin/Streptomycin, 10% Fetal bovine serum, 100 mM pyruvate, […] beta-mercatptoethanol, 100 micrograms/ml G418 and 100 microgram/ml hygromycin and were grown in adherent culture at 37° C. in a standard CO2 cell culture incubator.
INS-TMEM27 cells were seeded in 96-well plates. After 2 days in culture, BACE2 inhibitor was added in a range of concentrations as required by the assay and after a further two hours, doxycycline was added to a final concentration of 500 ng/ml. The cells were incubated for a further 46 hours and the supernatant harvested for detection of shed TMEM27.
An ELISA assay (using a pair of mouse anti-human-TMEM27 antibodies, raised against the extracellular domain of TMEM27) was used for detection of TMEM27 in the culture medium. An IC50 for BACE2 inhibition was calculated using the ELISA readout for each inhibitor concentration with standard curve-fitting software.
The inhibitory activity, given as an IC50 value, of the compounds of Examples 1 to 32 and 34 to 74 were as follows.

In order of falling IC50:
1. O=C(NCc1ccccn1)c1cccc(C(=O)N[C@@H](Cc2ccccc2)[C@H](O)CNCc2cccc(OC(F)(F)F)c2)c1 [Example 6, N-[(1S,2R)-1-Benzyl-2-hydroxy-3-(3-trifluoromethoxy-benzylamino)-propyl]-N′-pyridin-2-ylmethyl-isophthalamide]  520 nM
2. Cn1nccc1C1CCCN1C(=O)c1cccc(C(=O)N[C@@H](Cc2ccccc2)[C@H](O)CNCc2cccc(C(F)(F)F)c2)c1 (stereo partly drawn) [Example 15, N-[(1S,2R)-1-Benzyl-2-hydroxy-3-(3-trifluoromethyl-benzylamino)-propyl]-3-[2-(2-methyl-2H-pyrazol-3-yl)-pyrrolidine-1-carbonyl]-benzamide]  332 nM
3. O=C(N[C@@H](Cc1ccccc1)[C@H](O)CNCc1cccc(C(F)(F)F)c1)c1cccc(C(=O)N2CCC[C@@H]2c2ccccc2)c1 [Example 66, N-[(1S,2R)-1-Benzyl-2-hydroxy-3-(3-trifluoromethyl-benzylamino)-propyl]-3-((R)-2-phenyl-pyrrolidine-1-carbonyl)-benzamide]  314 nM
4. Cc1cc(C2CCCN2C(=O)c2cccc(C(=O)N[C@@H](Cc3ccccc3)[C@H](O)CNCc3cccc(OC(F)(F)F)c3)c2)on1 (stereo partly drawn) [Example 26, N-[(1S,2R)-1-Benzyl-2-hydroxy-3-(3-trifluoromethoxy-benzylamino)-propyl]-3-[2-(3-methyl-isoxazol-5-yl)-pyrrolidine-1-carbonyl]-benzamide]  284 nM
5. Cc1csc(CN(C)C(=O)c2cccc(C(=O)N[C@@H](Cc3ccccc3)[C@H](O)CNCc3cccc(OC(F)(F)F)c3)c2)n1 [Example 2, N-[(1S,2R)-1-Benzyl-2-hydroxy-3-(3-trifluoromethoxy-benzylamino)-propyl]-N′-methyl-N′-(4-methyl-thiazol-2-ylmethyl)-isophthalamide]  258 nM
6. Cc1csc(CN(C)C(=O)c2cc(C(=O)N[C@@H](Cc3ccccc3)[C@H](O)CNCc3cncc(C(C)(C)F)c3)cc(N(C)S(C)(=O)=O)c2)n1 [Example 74, N-((1S,2R)-1-Benzyl-3-{[5-(1-fluoro-1-methyl-ethyl)-pyridin-3-ylmethyl]-amino}-2-hydroxy-propyl)-5-(methanesulfonyl-methyl-amino)-N′-methyl-N′-(4-methyl-thiazol-2-ylmethyl)-isophthalamide]  255 nM
7. Cc1noc(C2CCCN2C(=O)c2cccc(C(=O)N[C@@H](Cc3ccccc3)[C@H](O)CNCc3cccc(C(F)(F)F)c3)c2)n1 (stereo partly drawn) [Example 17, N-[(1S,2R)-1-Benzyl-2-hydroxy-3-(3-trifluoromethyl-benzylamino)-propyl]-3-[2-(3-methyl-[1,2,4]oxadiazol-5-yl)-pyrrolidine-1-carbonyl]-benzamide]  213 nM
8. Cc1csc(CN(C)C(=O)c2cccc(C(=O)N[C@@H](Cc3ccccc3)[C@H](O)CNCc3cccc(C(F)(F)F)c3)c2)n1 [Example 1, N-[(1S,2R)-1-Benzyl-2-hydroxy-3-(3-trifluoromethyl-benzylamino)-propyl]-N′-methyl-N′-(4-methyl-thiazol-2-ylmethyl)-isophthalamide]  205 nM
9. COc1cccc(CNC[C@@H](O)[C@H](Cc2ccccc2)NC(=O)c2cccc(C(=O)N(C)Cc3nc(C)cs3)c2)c1 [Example 3, N-[(1S,2R)-1-Benzyl-2-hydroxy-3-(3-methoxy-benzylamino)-propyl]-N′-methyl-N′-(4-methyl-thiazol-2-ylmethyl)-isophthalamide]  175 nM
10. Cc1cc(C(=O)N[C@@H](Cc2ccccc2)[C@H](O)CNCc2cccc(C(F)(F)F)c2)cc(C(=O)N2CCC[C@@H]2c2nc(C)cs2)c1 [Example 49, N-[(1S,2R)-1-Benzyl-2-hydroxy-3-(3-trifluoromethyl-benzylamino)-propyl]-3-methyl-5-[(R)-2-(4-methyl-thiazol-2-yl)-pyrrolidine-1-carbonyl]-benzamide]  119 nM
11. Cc1cc(C(=O)N[C@@H](Cc2ccccc2)[C@H](O)CNCc2cccc(C(F)(F)F)c2)cc(C(=O)N(C)Cc2ccccn2)c1 [Example 52, N-[(1S,2R)-1-Benzyl-2-hydroxy-3-(3-trifluoromethyl-benzylamino)-propyl]-5,N′-dimethyl-N′-pyridin-2-ylmethyl-isophthalamide]  95 nM
12. O=C(N[C@@H](Cc1ccccc1)[C@H](O)CNCc1cccc(OC(F)(F)F)c1)c1cccc(C(=O)N2CCCC2c2ccccc2)c1 (stereo partly drawn) [Example 24, N-[(1S,2R)-1-Benzyl-2-hydroxy-3-(3-trifluoromethoxy-benzylamino)-propyl]-3-(2-phenyl-pyrrolidine-1-carbonyl)-benzamide]  68 nM
13. Cc1cc(C2CCCN2C(=O)c2cccc(C(=O)N[C@@H](Cc3ccccc3)[C@H](O)CNCc3cccc(C(F)(F)F)c3)c2)on1 (stereo partly drawn) [Example 16, N-[(1S,2R)-1-Benzyl-2-hydroxy-3-(3-trifluoromethyl-benzylamino)-propyl]-3-[2-(3-methyl-isoxazol-5-yl)-pyrrolidine-1-carbonyl]-benzamide]  55 nM
14. CN(Cc1ccccn1)C(=O)c1cccc(C(=O)N[C@@H](Cc2ccccc2)[C@H](O)CNCc2cccc(C(F)(F)F)c2)c1 [Example 18, N-[(1S,2R)-1-Benzyl-2-hydroxy-3-(3-trifluoromethyl-benzylamino)-propyl]-N′-methyl-N′-pyridin-2-ylmethyl-isophthalamide]  47 nM
15. Cc1csc([C@H]2CCCN2C(=O)c2cccc(C(=O)N[C@@H](Cc3ccccc3)[C@H](O)CNCc3cccc(OC(F)(F)F)c3)c2)n1 [Example 21, N-[(1S,2R)-1-Benzyl-2-hydroxy-3-(3-trifluoromethoxy-benzylamino)-propyl]-3-[(R)-2-(4-methyl-thiazol-2-yl)-pyrrolidine-1-carbonyl]-benzamide]  37 nM
16. Cc1cc(C(=O)N[C@@H](Cc2ccccc2)[C@H](O)CNCc2cccc(OC(F)(F)F)c2)cc(C(=O)N2CCC[C@@H]2c2nc(C)cs2)c1 [Example 10, N-[(1S,2R)-1-Benzyl-2-hydroxy-3-(3-trifluoromethoxy-benzylamino)-propyl]-3-methyl-5-[(R)-2-(4-methyl-thiazol-2-yl)-pyrrolidine-1-carbonyl]-benzamide]  14 nM
17. CN(c1cc(C(=O)N[C@@H](Cc2ccccc2)[C@H](O)CNCc2cccc(OC(F)(F)F)c2)cc(C(=O)N2CCCC2c2cccs2)c1)S(C)(=O)=O (stereo partly drawn) [Example 45, N-[(1S,2R)-1-Benzyl-2-hydroxy-3-(3-trifluoromethoxy-benzylamino)-propyl]-3-(methanesulfonyl-methyl-amino)-5-(2-thiophen-2-yl-pyrrolidine-1-carbonyl)-benzamide]  11 nM
18. O=C(N[C@@H](Cc1ccccc1)[C@H](O)CNCc1cccc(C(F)(F)F)c1)c1cccc(C(=O)N2CCCC2c2cccc(F)c2)c1 (stereo partly drawn) [Example 68, N-[(1S,2R)-1-Benzyl-2-hydroxy-3-(3-trifluoromethyl-benzylamino)-propyl]-3-[2-(3-fluoro-phenyl)-pyrrolidine-1-carbonyl]-benzamide]  2 nM
19. Cc1cc(C(=O)N[C@@H](Cc2ccccc2)[C@H](O)CNCc2cccc(C(F)(F)F)c2)cc(C(=O)N2CCCC2c2cccs2)c1 (stereo partly drawn) [Example 54, N-[(1S,2R)-1-Benzyl-2-hydroxy-3-(3-trifluoromethyl-benzylamino)-propyl]-3-methyl-5-(2-thiophen-2-yl-pyrrolidine-1-carbonyl)-benzamide]  1.9 nM
20. Cc1cc(C(=O)N[C@@H](Cc2ccccc2)[C@H](O)CNCc2cccc(OC(F)(F)F)c2)cc(C(=O)N2CCCC2c2cccs2)c1 (stereo partly drawn) [Example 46, N-[(1S,2R)-1-Benzyl-2-hydroxy-3-(3-trifluoromethoxy-benzylamino)-propyl]-3-methyl-5-(2-thiophen-2-yl-pyrrolidine-1-carbonyl)-benzamide]  1 nM
21. CC1CCN(C(=O)c2cccc(C(=O)N[C@@H](Cc3ccccc3)[C@H](O)CNCc3cccc(C(F)(F)F)c3)c2)C1c1ccc(F)cc1 (stereo partly drawn) [Example 63, N-[(1S,2R)-1-Benzyl-2-hydroxy-3-(3-trifluoromethyl-benzylamino)-propyl]-3-[2-(4-fluoro-phenyl)-3-methyl-pyrrolidine-1-carbonyl]-benzamide]  1 nM
